Measured values reported in patent US20180117053A1, “The Method of Use for Inhibitors of Epidermal Growth Factor Receptor Variants II, III and VI” (Metastat, Inc., priority 2015, published 2018).

Assays:
[1] = test system: tumors expressing EGFR-viii; settings: clinical studies (Vivanco 2012, Reardon 2014); cited from earlier work
[2] = target: T1, EGFR-viii (Homo sapiens, UniProt P00533, DELINS30-297G); experiment: PhosphoY1173-EGFR-viii in-cell ELISA in U87MG tumor cells engineered to express EGFR-viii; type: cell-based; settings: U87MG tumor cells expressing EGFR-viii; for activity against EGFR-viii: in words
T1 construct: expressed in transfected cells; host or cells: U87MG (ATCC), lentiviral infection, puromycin selection
Method: Data are expressed as EC50 and were determined using an in-cell ELISA kit (Pierce).

| SMILES | activity against EGFR-viii ([2]; in-cell ELISA) | other results |
| --- | --- | --- |
| CS(=O)(=O)CCNCc1ccc(-c2ccc3ncnc(Nc4ccc(OCc5cccc(F)c5)c(Cl)c4)c3c2)o1 [Lapatinib, lapatinib] |  | cancer growth inhibition in clinical studies [1]: insignificant cancer growth inhibition |
| C=CC(=O)Nc1ccc2ncnc(Nc3ccc(OCc4cccc(F)c4)c(Cl)c3)c2c1 [AST-1306] |  | potency against EGFR-viii relative to WZ4002, WZ8040, WZ3146, CO-1686 and AZD9291 [2]: at least ten-fold more potent; EC50 ([2]; in-cell ELISA, read-out: EC50 against EGFR-viii (phosphoY1173-EGFRviii)): < 50 nM |
| C=CC(=O)Nc1cccc(Oc2nc(Nc3ccc(N4CCN(C)CC4)cc3)ncc2Cl)c1 [WZ3146] | weak activity |  |
| C=CC(=O)Nc1cccc(Nc2nc(Nc3ccc(N4CCN(C(C)=O)CC4)cc3OC)ncc2C(F)(F)F)c1 [CO-1686] | weak activity |  |
| C=CC(=O)Nc1cccc(Sc2nc(Nc3ccc(N4CCN(C)CC4)cc3)ncc2Cl)c1 [WZ8040] | weak activity |  |
